Experimental data taken from patent US20070049564A1 (Wyeth, priority 2005, published 2007).
Converted amounts (≈) assume the structure as drawn. Read-outs that look alike come from different tables or passages of the source.

What was measured:
E. coli GC 2236 = assay: MIC, broth microdilution; settings: Escherichia coli, GC2236, E. coli GC 2236
E. coli GC 2233 = assay: MIC, broth microdilution; settings: Escherichia coli, GC2233, E. coli GC 2233
E. coli GC 2234 = assay: MIC, broth microdilution; settings: Escherichia coli, GC2234, E. coli GC 2234
E. coli GC 2272 = assay: MIC, broth microdilution; settings: Escherichia coli, GC2272, E. coli GC 2272
E. coli GC 6465 = assay: MIC, broth microdilution; settings: Escherichia coli, GC6465, E. coli GC 6465
E. coli GC 1073 = assay: MIC, broth microdilution; settings: Escherichia coli, GC1073, E. coli GC 1073
S. aureus GC 1131 = assay: MIC, broth microdilution; settings: Staphylococcus aureus, GC1131, S. aureus GC 1131
S. aureus GC 6466 = assay: MIC, broth microdilution; settings: Staphylococcus aureus, GC6466, S. aureus GC 6466
S. aureus GC 1079 = assay: MIC, broth microdilution; settings: Staphylococcus aureus, GC1079, S. aureus GC 1079
S. aureus GC 4536 = assay: MIC, broth microdilution; settings: Staphylococcus aureus, GC4536, S. aureus GC 4536
S. aureus GC 6469 = assay: MIC, broth microdilution; settings: Staphylococcus aureus, GC6469, S. aureus GC 6469
S. epidermidis GC 4935 = assay: MIC, broth microdilution; settings: Staphylococcus epidermidis, GC4935, S. epidermidis GC 4935
E. faecalis GC 4555 = assay: MIC, broth microdilution; settings: Enterococcus faecalis, GC4555, E. faecalis GC 4555
E. faecalis GC 2265 = assay: MIC, broth microdilution; settings: Enterococcus faecalis, GC2265, E. faecalis GC 2265
E. faecium GC 2243 = assay: MIC, broth microdilution; settings: Enterococcus faecium, GC2243, E. faecium GC 2243
S. pneumoniae+ GC 4465 = assay: MIC, broth microdilution; settings: Streptococcus pneumoniae, S. pneumoniae+ GC 4465
S. pyogenes GC 4563 = assay: MIC, broth microdilution; settings: Streptococcus pyogenes, GC4563, S. pyogenes GC 4563
c. albicans GC 3066 = assay: MIC, broth microdilution
Staph. = assay: Range of MIC for Staph. strains, including MRSA; settings: Staphylococcus aureus, MRSA

CCCN(CC(=O)Nc1cc(N(C)C)c2c(c1O)C(=O)C1=C(O)[C@]3(O)C(=O)C(C(N)=O)=C(O)[C@@H](N(C)C)[C@@H]3C[C@@H]1C2)C(=O)OCC(C)C [Example 16, isobutyl 2-{[(5aR,6aS,7S,10aS)-9-(aminocarbonyl)-4,7-bis(dimethylamino)-1,8,10a,11-tetrahydroxy-10,12-dioxo-5,5a,6,6a,7,10,10a,12-octahydrotetracen-2-yl]amino}-2-oxoethyl(propyl)carbamate]
MIC (E. coli GC 2236; Mouse Serum pre-incubation): 64 µg/mL (≈ 95.3 µM) | MIC (E. coli GC 2236; Water pre-incubation): > 64 µg/mL | MIC (E. coli GC 2233; Mouse Serum pre-incubation): > 64 µg/mL | MIC (E. coli GC 2233; Water pre-incubation): > 64 µg/mL | MIC (E. coli GC 2234; Mouse Serum pre-incubation): > 64 µg/mL | MIC (E. coli GC 2234; Water pre-incubation): > 64 µg/mL | MIC (E. coli GC 2272; Mouse Serum pre-incubation): > 64 µg/mL | MIC (E. coli GC 2272; Water pre-incubation): > 64 µg/mL | MIC (E. coli GC 6465; Mouse Serum pre-incubation): > 64 µg/mL | MIC (E. coli GC 6465; Water pre-incubation): > 64 µg/mL | MIC (E. coli GC 1073; Mouse Serum pre-incubation): > 64 µg/mL | MIC (E. coli GC 1073; Water pre-incubation): > 64 µg/mL | MIC (S. aureus GC 1131; Mouse Serum pre-incubation): 2 µg/mL (≈ 2.98 µM) | MIC (S. aureus GC 1131; Water pre-incubation): 4 µg/mL (≈ 5.95 µM) | MIC (S. aureus GC 6466; Mouse Serum pre-incubation): 4 µg/mL (≈ 5.95 µM) | MIC (S. aureus GC 6466; Water pre-incubation): 8 µg/mL (≈ 11.9 µM) | MIC (S. aureus GC 1079; Mouse Serum pre-incubation): 2 µg/mL (≈ 2.98 µM) | MIC (S. aureus GC 1079; Water pre-incubation): 4 µg/mL (≈ 5.95 µM) | MIC (S. aureus GC 4536; Mouse Serum pre-incubation): 2 µg/mL (≈ 2.98 µM) | MIC (S. aureus GC 4536; Water pre-incubation): 4 µg/mL (≈ 5.95 µM) | MIC (S. aureus GC 6469; Mouse Serum pre-incubation): 4 µg/mL (≈ 5.95 µM) | MIC (S. aureus GC 6469; Water pre-incubation): 8 µg/mL (≈ 11.9 µM) | MIC (S. epidermidis GC 4935; Mouse Serum pre-incubation): 8 µg/mL (≈ 11.9 µM) | MIC (S. epidermidis GC 4935; Water pre-incubation): 8 µg/mL (≈ 11.9 µM) | MIC (E. faecalis GC 4555; Mouse Serum pre-incubation): 4 µg/mL (≈ 5.95 µM) | MIC (E. faecalis GC 4555; Water pre-incubation): 8 µg/mL (≈ 11.9 µM) | MIC (E. faecalis GC 2265; Mouse Serum pre-incubation): 4 µg/mL (≈ 5.95 µM) | MIC (E. faecalis GC 2265; Water pre-incubation): 8 µg/mL (≈ 11.9 µM) | MIC (E. faecium GC 2243; Mouse Serum pre-incubation): 4 µg/mL (≈ 5.95 µM) | MIC (E. faecium GC 2243; Water pre-incubation): 8 µg/mL (≈ 11.9 µM) | MIC (S. pneumoniae+ GC 4465; Mouse Serum pre-incubation): 8 µg/mL (≈ 11.9 µM) | MIC (S. pneumoniae+ GC 4465; Water pre-incubation): 8 µg/mL (≈ 11.9 µM) | MIC (S. pyogenes GC 4563; Mouse Serum pre-incubation): 4 µg/mL (≈ 5.95 µM) | MIC (S. pyogenes GC 4563; Water pre-incubation): 8 µg/mL (≈ 11.9 µM) | MIC (c. albicans GC 3066; Candida albicans, GC3066): > 64 µg/mL | MIC (c. albicans GC 3066; c. albicans GC 3066, Water pre-incubation): >64 UG/ML | MIC (Staph.; read-out: Range of MIC, Staph (Mouse Serum)): 2 to 8 µg/mL (≈ 2.98 to 11.9 µM) | MIC (Staph.; read-out: Range of MIC, Staph (Water)): 4 to 8 µg/mL (≈ 5.95 to 11.9 µM)
